The source of these data is patent publication US20100184809A1, “Heterocyclic FXR Binding Compounds” (PHENEX PHARMACEUTICALS AG, priority 2006, published 2010).

pIC50: −log10 of the molar value. ≈ marks a conversion by molar mass, not a printed value. Some results are limits rather than exact numbers.

The nature of data set [1]: Plasma protein binding assay (equilibrium dialysis). Format: in vitro ADME. Particulars: 37° C., extrapolated fraction unbound. The method, then:
Equilibrium dialysis is used to determine the extent of binding of a compound to plasma proteins. A semi-permeable membrane separates a protein-containing compartment from a protein-free compartment. The system is allowed to equilibrate at 37° C. The test compound present in each compartment is quantified by LC-MS/MS. The extent of binding is reported as a fraction unbound (fu) value which is calculated as fu=1−(PC−PF)/PC. PC=Test compound concentration in protein-containing compartment. PF=Test compound concentration in protein-free compartment. In addition to using whole plasma, the plasma protein binding assay can be performed using two other ratios of plasma (10% or 50% plasma in buffer v/v). The following equations are used to convert from a fraction unbound at 10% or 50% to a fraction unbound at 100%: […]

A further data set can be described thus: Caco-2 permeability. Format: in vitro ADME. Particulars: human, apical to basolateral. The method, then: Caco-2 cells are widely used as an in vitro model for predicting human drug absorption. The Caco-2 cell line is derived from a human colorectal carcinoma, and when cultured, the cells spontaneously differentiate into monolayers of polarised enterocytes. The cells are seeded on Transwell™ plates and form a confluent monolayer over 20 days prior to the experiment. On day 20, the test compound is added to the apical side of the membrane and the transport of the compound across the monolayer is monitored over a 2 hour time period. To study drug efflux, it is also necessary to investigate transport of the compound from the basolateral compartment to the apical compartment. The permeability coefficient (Papp) is calculated from the following equation: […]
Where dQ/dt is the rate of permeation of the drug across the cells, CO is the donor compartment concentration at time zero and A is the area of the cell monolayer.
In general terms: Caco-2 cells form a polarised layer with tight junctions and transporters.

Data set [2] has as its target T1, human FXRalpha ligand binding domain (LBD) (Homo sapiens, UniProt Q96RI1).
T1 construct: made in house; host or cells: E. coli BL21(DE3), vector pDEST15
T1 sequence (Q96RI1 187-472 isoform Q96RI1-2): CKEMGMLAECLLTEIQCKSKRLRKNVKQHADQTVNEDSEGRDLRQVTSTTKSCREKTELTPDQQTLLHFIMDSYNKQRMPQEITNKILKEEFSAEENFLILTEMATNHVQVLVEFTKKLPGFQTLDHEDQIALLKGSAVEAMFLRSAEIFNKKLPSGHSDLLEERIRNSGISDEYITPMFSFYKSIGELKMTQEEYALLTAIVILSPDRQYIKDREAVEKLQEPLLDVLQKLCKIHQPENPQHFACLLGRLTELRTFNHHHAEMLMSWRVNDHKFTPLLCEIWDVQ
The data set can be described thus: FRET activity assay (ligand mediated cofactor peptide interaction, LANCE). The data set is classed as biochemical. Particulars: GST-FXR-LBD / biotinylated SRC-1 peptide (676-700). The method, then: Determination of a ligand mediated cofactor peptide interaction to quantify ligand binding to the nuclear receptor Farnesoid X Receptor (FXR) was performed as follows:
Preparation of human farnesoid X receptor (FXR) alpha ligand binding domain: The human FXRalpha ligand binding domain (LBD) was expressed in E. coli strain BL21(DE3) as an N-terminally glutathione-[…] (GST) tagged fusion protein. The DNA encoding the FXR ligand binding domain was cloned into vector pDEST15 (Invitrogen). Expression was under control of an IPTG inducible T7 promoter. The amino acid boundaries of the ligand binding domain were amino acids 187-472 of Database entry NM_005123 (RefSeq). Expression and purification of the FXR-LBD: An overnight preculture of a transformed E. coli strain was diluted 1:20 in LB-Ampicillin medium and grown at 30° C. to an optical density of OD600=0.4-0.6. Gene expression was then induced by addition of 0.5 mM IPTG. Cells were incubated an additional 6 h at 30° C., 180 rpm. Cells were collected by centrifugation (7000×g, 7 min, room temperature). Per liter of original cell culture, cells were resuspended in 10 ml lysis buffer (50 mM Glucose, 50 mM Tris pH 7.9, 1 mM EDTA and 4 mg/ml lysozyme) and left on ice for 30 min. Cells were then subjected to sonication and cell debris removed via centrifugation (22000×g, 30 min, 4° C.). Per 10 ml of supernatant 0.5 ml prewashed Glutathione 4B sepharose slurry (Qiagen) was added and the suspension kept slowly rotating for 1 h at 4° C. Glutathione 4B sepharose beads were pelleted by centrifugation (2000 g, 15 sec, 4° C.) and washed twice in wash buffer (25 mM Tris, 50 mM KCl, 4 mM MgCl2 and 1M NaCl). The pellet was resuspended in 3 ml elution buffer per liter of original culture (elution buffer: 20 mM Tris, 60 mM KCl, 5 mM MgCl2 and 80 mM glutathione added immediately prior to use as powder). The suspension was left rotating for 15 min at 4° C., the beads pelleted and eluted again with half the volume of elution buffer than the first time. The eluates were pooled and dialysed overnight in 20 mM Hepes buffer (pH 7.5) containing 60 mM KCl, 5 mM MgCl2 as well as 1 mM dithiothreitol and 10% (v/v) glycerol. The protein was analysed by SDS-Page.
The method measures the ability of putative ligands to modulate the interaction between the purified bacterial expressed FXR ligand binding domain (LBD) and a synthetic biotinylated peptide based on residues 676-700 of SRC-1 (LCD2, 676-700). The sequence of the peptide used was B-[…]-COOH where the N-terminus was biotinylated (B). The ligand binding domain (LBD) of FXR was expressed as fusion protein with GST in BL-21 cells using the vector pDEST15. Cells were lysed by sonication, and the fusion proteins purified over glutathione sepharose (Pharmacia) according to the manufacturers instructions. For screening of compounds for their influence on the FXR-peptide interaction, the Perkin Elmer LANCE technology was applied. This method relies on the binding dependent energy transfer from a donor to an acceptor fluorophor attached to the binding partner of interest. For ease of handling and reduction of background from compound fluorescence LANCE technology makes use of generic fluorophore labels and time resolved detection Assays were done in a final volume of 2 5 μl in a 384 well plate, in a Tris-based buffer (20 mM Tris-HCl pH 7,5; 60 mM KCl, 5 mM MgCl2; 35 ng/μl BSA), containing 20-60 ng/well recombinantly expressed FXR-LBD fused to GST, 200-600 nM N-terminally biotinylated peptide, representing SRC1 aminoacids 676-700, 200 ng/well Streptavidin-xIAPC conjugate(Prozyme) and 6-10 ng/well Eu W1024 antiGST (Perkin Elmer). DMSO content of the samples was kept at 1%. After generation of the assay mix and diluting the potentially FXR modulating ligands, the assay was equilibrated for one hour in the dark at room temperature in FIA-plates black 384 well (Greiner). […]
For orientation: In TR-FRET formats the signal depends on donor and acceptor labels being close together.

The nature of data set [3]: Rat microsomal stability assay. The data set is classed as in vitro ADME. Particulars: liver microsomes, 37° C., NADPH, 45 minute, read-out: Rat liver microsome clearance. As for the experimental part:
Compound stability towards rat liver microsomes was determined as follows: The microsomes are incubated with the test compound at 37° C. in the presence of the co-factor, NADPH, which initiates the reaction. The reaction is terminated by the addition of methanol. Following centrifugation, the supernatant is analysed on the LC-MS/MS. The disappearance of test compound is monitored over a 45 minute time period. The In peak area ratio (compound peak area/internal standard peak area) is plotted against time and the gradient of the line determined. Finally, Intrinsic clearance CLint is computed by the following equations: elimination rate konstant (k)=−gradient; t1/2 (min)=0.693/k; V (μl/mg)=volume of incubation (μl)/protein in incubation (mg); CLint (μl/min/mg protein)=V*0.693/t1/2.
Background: Liver microsomes are vesicles of endoplasmic reticulum, rich in cytochrome P450 enzymes.

A short description of data set [4]: Aqueous solubility assay, Protocol A, nephelometry method. Particulars: PBS with 5% DMSO, aqueous with cosolvent or surfactant or cyclodextrin, kinetic from dmso stock, PBS pH 7.4, 5% DMSO, 23° C., 24 hours, read-out: Aqueous solubility pH 7.4. Format: physicochemical. As for the experimental part:
Aqueous solubility of compounds was determined by nephelometry or by the shake-flask method as follows:
Protocol A, nephelometry method:
Solubility of compounds was measured in PBS (pH 7.4), 5% DMSO at 23° C. Nepheloskan Ascent (Thermo Electron Corporation) nephelometer was used for measurement of light scattering. Tested compounds were dissolved in DMSO to 10 mM. Prior to measurement the compounds were further diluted with PBS in the wells to final compound concentrations of 100, 70, 50, 35, 25, 17, 12 and <10 μg/ml.
The plates were incubated at room temperature for 24 hours to reach equilibrium and the scattered light was measured. Assay validation: Aqueous solubility of acetylsalicylic acid was determined to validate the assay.
The following compounds of Table 2 exemplify such solubility with “−−” meaning solubility<2 μM, “+” meaning 2 μM solubility 100 μM and “++” meaning solubility

What is called fraction unbound is free concentration divided by total concentration. Broadly, the Papp A→B is how fast a substance crosses the layer from the apical side. High values mean fast passage, low ones slow passage. Turning to `Cc1onc(-c2c(Cl)cccc2Cl)c1COc1ccc(NC(=O)c2cccc(C(=O)O)c2)cc1` [Compound C, reference compound], in data set [1], the fraction unbound was 0.0001. Also, the Papp A→B at 2 h in the data set “Caco-2 permeability” came out at 0.6 ×10⁻⁶ cm/s.

The pIC50 is the negative decadic logarithm of the IC50, by convention in mol/L. A high value points to a small IC50. Consider `Cc1onc(-c2c(Cl)cccc2Cl)c1COc1ccc(NC(=O)c2cccc(C(=O)O)c2)cn1` [Example 15, 3-(6-((3-(2,6-dichlorophenyl)-5-methylisoxazol-4-yl)methoxy)pyridin-3-ylcarbamoyl)benzoic acid], for which, in data set [1], the fraction unbound is 0.0003. The pIC50 in data set [2] is 5.00 to 6.00. Moreover, the microsomal CLint in data set [3] is 149 µL/min/mg.

One may read the melting point as the temperature of the solid-liquid transition. In turn, `Cc1cc(OCc2c(-c3c(Cl)cccc3Cl)noc2C(C)C)cnc1NC(=O)c1ccc(C(=O)O)cc1` [Example 19, N-(5-[3-(2,6-Dichloro-phenyl)-5-isopropyl-isoxazol-4-ylmethoxy]-3-methyl-pyridin-2-yl)-terephthalamic acid] showed a melting point of 218 °C. In addition, the fraction unbound in data set [1] is 0.003. This compound had a pIC50 in data set [2] of at least 6.00. In data set [3], the microsomal CLint worked out at 57 µL/min/mg.

The solubility is how much of the substance goes into solution per volume. The compound `CC(C)c1onc(-c2c(Cl)cccc2Cl)c1COc1ccc(NC(=O)c2cccc(C(=O)O)c2)c(C(F)(F)F)n1` [Example 21] had a melting point of 153.8 to 154.8 °C. In data set [2], this compound showed a pIC50 of at least 6.00. Moreover, the solubility at 24 h in data set [4] is above 100 µM.

As for `CC(C)c1onc(-c2c(Cl)cccc2Cl)c1COc1ccc(N(C)C(=O)c2ccc(C(N)=O)cc2)c(C(F)(F)F)n1` [Example 23, N^1-(6-((3-(2,6-Dichlorophenyl)-5-isopropylisoxazol-4-yl)methoxy)-2-(trifluoromethyl)pyridin-3-yl)-N^1-methylterephthalamide], the melting point was 229 °C (dec.). This compound also gave a pIC50 in data set [2] of at least 6.00. The solubility at 24 h in data set [4] is 2 to 100 µM (≈ 1.21 to 60.7 µg/mL).

`Cc1cc(OCc2c(-c3c(Cl)cccc3Cl)noc2C(C)C)cnc1N(C)C(=O)c1ccc(C(=O)O)cc1` [Example 26, 4-((5-((3-(2,6-dichlorophenyl)-5-isopropylisoxazol-4-yl)methoxy)-3-methylpyridin-2-yl)(methyl)carbamoyl)benzoic acid] showed a pIC50 in data set [2] of 5.00 to 6.00. Besides, the microsomal CLint in data set [3] amounted to 55 µL/min/mg.

`CC(C)c1onc(-c2c(Cl)cccc2Cl)c1COc1ccc(NCc2ccc(C(=O)O)cc2)c(C(F)(F)F)n1` [Example 27, 4-((6-((3-(2,6-Dichlorophenyl)-5-isopropylisoxazol-4-yl)methoxy)-2-(trifluoromethyl)pyridin-3-ylamino)methyl)benzoic acid] returned a melting point of 259.1 to 260.1 °C. Further, the negative-log IC50 (pIC50) in data set [2] was at least 6.00.

On to `CC(C)c1nnn(-c2c(Cl)cccc2Cl)c1COc1ccc(N(C)C(=O)c2ccc(C(=O)O)cc2)c(C(F)(F)F)n1` [Example 29, 4-((6-((1-(2,6-Dichlorophenyl)-4-isopropyl-1H-1,2,3-triazol-5-yl)methoxy)-2-(trifluoromethyl)pyridin-3-yl)(methyl)carbamoyl)benzoic acid], for which the melting point was in the range of 218 to 219 °C. The compound also gave a pIC50 in data set [2] of at least 6.00.

`Cc1nc(OCc2c(C(C)C)nnn2-c2c(Cl)cccc2Cl)ccc1N(C)S(=O)(=O)c1ccc(C(=O)O)cc1` [Example 30, 4-(N-(6-((1-(2,6-dichlorophenyl)-4-isopropyl-1H-1,2,3-triazol-5-yl)methoxy)-2-methylpyridin-3-yl)-N-methylsulfamoyl)benzoic acid] gave a melting point of 127.8 to 128.8 °C. Moreover, the pIC50 in data set [2] is at least 6.00.

Compound `CC(C)c1onc(-c2c(Cl)cccc2Cl)c1COc1ccc(N(C)Cc2ccc(C(=O)NCCO)cc2)c(C(F)(F)F)n1` [Example 36, 4-(((6-((3-(2,6-Dichlorophenyl)-5-isopropylisoxazol-4-yl)methoxy)-2-(trifluoromethyl)pyridin-3-yl)(methyl)amino)methyl)-N-(2-hydroxyethyl)benzamide] gave a pIC50 in data set [2] of at least 6.00.

For the compound `CC(C)c1onc(-c2c(Cl)cccc2Cl)c1COc1ccc(N(C)Cc2ccc(C(=O)NCCN(C)C)cc2)c(C(F)(F)F)n1` [Example 37, 4-(((6-((3-(2,6-Dichlorophenyl)-5-isopropylisoxazol-4-yl)methoxy)-2-(trifluoromethyl)pyridin-3-yl)(methyl)amino)methyl)-N-(2-(dimethylamino)ethyl)benzamide], in data set [2], the pIC50 is at least 6.00.
